How the values were obtained:
[1] = system: human dorsal root ganglion neurons; experiment: Calcium flux (ΔF/F) in human dorsal root ganglion neurons ex vivo, TRPV1/TRPA1 activation; assay type: cell-based; settings: calcium-sensitive dye, FIG. 1
Procedure: Selective TRPV1 and TRPA1 activation responses were measured for exemplary compositions of the invention in human dorsal root ganglion neurons ex vivo and compared with TRPV1/TRPA1 co-activation responses. The degree of neuron activation was assessed by inward calcium flux using neurons preloaded with a calcium-sensitive fluorescent dye. Intracellular cellular calcium levels were then monitored by wide-field fluorescent microscopy. The change in intracellular fluorescence relative to baseline fluorescence (ΔF/F) was quantified, and the results are shown in FIG. 1.

[2] = system: flexor hallucis brevis muscle; experiment: Externally-induced cramping of the flexor hallucis brevis muscle, 6-shogaol orally disintegrating tablet (Example 4); assay type: in vivo, human; settings: ODT
Procedure: The goal of this study was to assess the effectiveness of 6-shogaol formulated as an orally disintegrating tablet (ODT) in the prevention of externally-induced cramping of the flexor hallucis brevis muscle of the foot. The study was carried in two parts. The first part was an open label, placebo-controlled, 5-visit study evaluating vehicle (lactose and sucrose), 0.5 mg, 2.5 mg, 10/6.9 mg, and 40/33 mg 6-shogaol. The second part was a randomized, single-blind, placebo-controlled, 4-visit study evaluating vehicle (lactose and sucrose), 0.5 mg, 20/18.5 mg, and 60/55.5 mg 6-shogaol. Screening of subjects occurred within 28 days in a similar manner as described above in Example 1. Note that dosage values separated by a “/” indicate the nominal versus the actual doses as determined by Chromadex.
The collected EMG data was analyzed for the baseline adjusted integrated EMG (IEMG) level, also referred to as area under the curve (AUC), and cramp duration, as described in Example 1. FIG. 11 and FIG. 12 summarize the average change and ratio in AUC values for all subjects compared by administered treatment both parts of the study. […] The data in FIG. 15 and FIG. 16 further support these findings.

[3] = system: flexor hallucis brevis muscle; experiment: Electrically induced flexor hallucis brevis cramp, surface EMG AUC over 140 seconds, additional beverage study (Example 3); assay type: in vivo, human; settings: 29 mg, 140 second observation period; FIG. 10
Procedure: An additional study was carried out comparing exemplary compounds and combinations thereof as summarized in Table 3 below, each administered as a beverage formulation.
Cramp intensity was assessed by integrating the area under the curve (AUC) of a surface EMG signal over a 140 second observation period post electrical induction of a cramp in the flexor hallucis brevis muscle as previously described. […] The overall change between the pre-treatment baseline and mean vehicle control response was minimal.

SMILES | neuron activation response, change in intracellular fluorescence relative to baseline (ΔF/F) [1] | cramp inhibition ([2]; 0.5 mg dosage level) | cramp inhibition ([2]; 2.6 mg dosage level) | cramp inhibition ([2]; 6.9 mg) | time over which cramp inhibition was sustained ([2]; 33 mg and 55 mg dosage levels) | cramp inhibition ([2]; 33 mg dosage level) | cramp inhibition ([2]; 55 mg dosage level) | decrease in cramp intensity compared to other treatments tested [3] | reduction in AUC compared to its study specific vehicle control [3]
CCCCCC(O)CC(=O)CCc1ccc(O)c(OC)c1 (stereo not shown) [Treatment 6-gingerol, 6-gingerol] | synergistic response |  |  |  |  |  |  |  | 
CCCCC/C=C/C(=O)CCc1ccc(O)c(OC)c1 [Treatment 6-shogaol, 6-shogaol] | synergistic response | no efficacy | no efficacy | roughly 40% | ≥ 8 h | 75% | 75% | greater decrease | 5 fold
